Data taken from US20230340011A1 (Asteroid Therapeutics, priority 2022, published 2023).

Target: LXRβ (Homo sapiens (Human), UniProt P55055)
Assay: In vitro assay LXRβ: PathHunter NHR CHO cells, LXRβ / Steroid Receptor Co-activator Peptide enzyme fragment complementation
Type: cell-based
Conditions: PathHunter NHR CHO cells, full-length human LXRβ and SRCP, chemiluminescent signal; read-out: LXRβ PPI
Description: PathHunter NHR CHO cells stably transfected with tagged full-length human LXRβ and a nuclear fusion protein containing Steroid Receptor Co-activator Peptide (SRCP). The full-length human LXRβ was tagged with the ProLink™ component of the DiscoverX Enzyme Fragment Complementation (EFC) system and the SRCP domain is fused to the enzyme acceptor component (EA) expressed in the nucleus. Cells were seeded in a total volume of 20 μL into white walled, 384-well microplates and incubated at 37° C. overnight prior to testing. Assay media contained charcoal-dextran filtered serum to reduce the level of hormones present. Final assay vehicle concentration was 1%. […] Microplates were read following signal generation with a PerkinElmer Envision instrument for chemiluminescent signal detection.

Chain of LXRβ (P55055 whole entry, the tested form may be a part): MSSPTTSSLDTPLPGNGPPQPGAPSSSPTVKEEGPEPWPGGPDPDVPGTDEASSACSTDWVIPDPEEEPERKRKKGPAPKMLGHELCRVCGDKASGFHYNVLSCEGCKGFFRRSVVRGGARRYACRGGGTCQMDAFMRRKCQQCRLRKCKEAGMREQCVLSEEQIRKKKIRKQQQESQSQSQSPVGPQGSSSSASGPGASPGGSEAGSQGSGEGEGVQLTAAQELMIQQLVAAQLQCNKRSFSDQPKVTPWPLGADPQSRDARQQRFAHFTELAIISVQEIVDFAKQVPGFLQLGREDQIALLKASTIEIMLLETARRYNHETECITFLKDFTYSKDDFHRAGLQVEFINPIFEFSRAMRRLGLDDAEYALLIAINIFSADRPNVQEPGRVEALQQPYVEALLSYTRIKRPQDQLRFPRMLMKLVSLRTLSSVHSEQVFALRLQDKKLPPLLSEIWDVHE

SMILES | EC50 [µM]
CC(=O)N1CCN(C(=O)CC[C@@H](C)[C@H]2CC[C@H]3[C@@H]4CC=C5C[C@@H](O)CC[C@]5(C)[C@H]4CC[C@]23C)[C@H](C)C1 [Example 275, (4R)-4-[(1R,3aS,3bS,7S,9aR,9bS,11aR)-7-hydroxy-9a,11a-dimethyl-1H,2H,3H,3aH,3bH,4H,6H,7H,8H,9H,9aH,9bH,10H,11H,11aH-cyclopenta[a]phenanthren-1-yl]-1-[(2R)-4-acetyl-2-methylpiperazin-1-yl]pentan-1-one] | > 10
COC(=O)N1CCN(C(=O)CCC[C@H]2CC[C@H]3[C@@H]4CC=C5C[C@@H](O)CC[C@]5(C)[C@H]4CC[C@]23C)CC1 [Example 283] | > 10
C[C@H](CCC(=O)N1CCN(C(=O)C2CC2)CC1)[C@H]1CC[C@H]2[C@@H]3CC=C4C[C@@H](O)CC[C@]4(C)[C@H]3CC[C@]12C [Example 314, (4R)-4-[(1R,3aS,3bS,7S,9aR,9bS,11aR)-7-hydroxy-9a,11a-dimethyl-1H,2H,3H,3aH,3bH,4H,6H,7H,8H,9H,9aH,9bH,10H,11H,11aH-cyclopenta[a]phenanthren-1-yl]-1-(4-cyclopropanecarbonylpiperazin-1-yl)pentan-1-one] | > 10
CNc1nccc(N2CCN(C(=O)CC[C@@H](C)[C@H]3CC[C@H]4[C@@H]5CC=C6C[C@@H](O)CC[C@]6(C)[C@H]5CC[C@]34C)CC2)n1 [Example 561, (R)-4-((3S,8S,9S,10R,13R,14S,17R)-3-hydroxy-10,13-dimethyl-2,3,4,7,8,9,10,11,12,13,14,15,16,17-tetradecahydro-1H-cyclopenta[a]phenanthren-17-yl)-1-(4-(2-(methylamino)pyrimidin-4-yl)piperazin-1-yl)pentan-1-one] | > 10
C[C@H](CCC(=O)N1CCN(c2cccnc2)CC1)[C@H]1CC[C@H]2[C@@H]3CC=C4C[C@@H](O)CC[C@]4(C)[C@H]3CC[C@]12C [Example 306, (4R)-4-[(1R,3aS,3bS,7S,9aR,9bS,11aR)-7-hydroxy-9a,11a-dimethyl-1H,2H,3H,3aH,3bH,4H,6H,7H,8H,9H,9aH,9bH,10H,11H,11aH-cyclopenta[a]phenanthren-1-yl]-1-[4-(pyridin-3-yl)piperazin-1-yl]pentan-1-one] | > 10
C[C@H](CCC(=O)N1O[C@H]2C[C@@H]1[C@H](O)[C@@H]2O)[C@H]1CC[C@H]2[C@@H]3CC=C4C[C@@H](O)CC[C@]4(C)[C@H]3CC[C@]12C [Example 54, (R)-1-((1S,4R,5S,6S)-5,6-dihydroxy-2-oxa-3-azabicyclo [2.2.1]heptan-3-yl)-4-((3S,8S,9S,10R,13R,14S,17R)-3-hydroxy-10,13-dimethyl-2,3,4,7,8,9,10,11,12,13,14,15,16,17-tetradecahydro-1H-cyclopenta[a]phenanthren-17-yl) pentan-1-one] | > 10
CCCON(C)C(=O)CC[C@@H](C)[C@H]1CC[C@H]2[C@@H]3CC=C4C[C@@H](O)CC[C@]4(C)[C@H]3CC[C@]12C [Example 12, (R)-4-((3S,8S,9S,10R,13R,14S,17R)-3-hydroxy-10,13-dimethyl-2,3,4,7,8,9,10,11,12,13,14,15,16,17-tetradecahydro-1H-cyclopenta[a]phenanthren-17-yl)-N-methyl-N-propoxypentanamide] | 0.25 to 1
C[C@H](CCC(=O)N1CCN(c2ccncn2)CC1)[C@H]1CC[C@H]2[C@@H]3CC=C4C[C@@H](O)CC[C@]4(C)[C@H]3CC[C@]12C [Example 302, (R)-4-((3S,8S,9S,10R,13R,14S,17R)-3-hydroxy-10,13-dimethyl-2,3,4,7,8,9,10,11,12,13,14,15,16,17-tetradecahydro-1H-cyclopenta[a]phenanthren-17-yl)-1-(4-(pyrimidin-4-yl)piperazin-1-yl)pentan-1-one] | > 10
C[C@H](CCC(=O)N(C)OCCCO)[C@H]1CC[C@H]2[C@@H]3CC=C4C[C@@H](O)CC[C@]4(C)[C@H]3CC[C@]12C [Example 30, (R)-4-((3S,8S,9S,10R,13R,14S,17R)-3-hydroxy-10,13-dimethyl-2,3,4,7,8,9,10,11,12,13,14,15,16,17-tetradecahydro-1H-cyclopenta[a]phenanthren-17-yl)-N-(3-hydroxypropoxy)-N-methylpentanamide] | 1 to 10
C[C@H](CCC(=O)N1CCN(C(=O)c2ccnnc2)CC1)[C@H]1CC[C@H]2[C@@H]3CC=C4C[C@@H](O)CC[C@]4(C)[C@H]3CC[C@]12C [Example 312, (R)-4-((3S,8S,9S,10R,13R,14S,17R)-3-hydroxy-10,13-dimethyl-2,3,4,7,8,9,10,11,12,13,14,15,16,17-tetradecahydro-1H-cyclopenta[a]phenanthren-17-yl)-1-(4-(pyridazine-4-carbonyl)piperazin-1-yl) pentan-1-one] | > 10
C[C@H](CCC(=O)N1CCN(c2ccccn2)CC1)[C@H]1CC[C@H]2[C@@H]3CC=C4C[C@@H](O)CC[C@]4(C)[C@H]3CC[C@]12C [Example 307, (R)-4-((3S,8S,9S,10R,13R,14S,17R)-3-hydroxy-10,13-dimethyl-2,3,4,7,8,9,10,11,12,13,14,15,16,17-tetradecahydro-1H-cyclopenta[a]phenanthren-17-yl)-1-(4-(pyridin-2-yl)piperazin-1-yl)pentan-1-one] | > 10
C[C@H](CCC(=O)N1CCC[C@H](Oc2ccncn2)C1)[C@H]1CC[C@H]2[C@@H]3CC=C4C[C@@H](O)CC[C@]4(C)[C@H]3CC[C@]12C [Example 218, (R)-4-((3S,8S,9S,10R,13R,14S,17R)-3-hydroxy-10,13-dimethyl-2,3,4,7,8,9,10,11,12,13,14,15,16,17-tetradecahydro-1H-cyclopenta[a]phenanthren-17-yl)-1-((S)-3-(pyrimidin-4-yloxy)piperidin-1-yl)pentan-1-one] | 0.25 to 1
C[C@H](CCC(=O)N1CCN(c2cncnc2)CC1)[C@H]1CC[C@H]2[C@@H]3CC=C4C[C@@H](O)CC[C@]4(C)[C@H]3CC[C@]12C [Example 222, (R)-4-((3S,8S,9S,10R,13R,14S,17R)-3-hydroxy-10,13-dimethyl-2,3,4,7,8,9,10,11,12,13,14,15,16,17-tetradecahydro-1H-cyclopenta[a]phenanthren-17-yl)-1-(4-(pyrimidin-5-yl)piperazin-1-yl)pentan-1-one] | > 10
CNC(=O)C(=O)O[C@@H](C)[C@H]1CC[C@H]2[C@@H]3CC=C4C[C@@H](O)CC[C@]4(C)[C@H]3CC[C@]12C [Example 145, (S)-1-((3S,8S,9S,10R,13S,14S,17S)-3-hydroxy-10,13-dimethyl-2,3,4,7,8,9,10,11,12,13,14,15,16,17-tetradecahydro-1H-cyclopenta[a]phenanthren-17-yl)ethyl 2-(methylamino)-2-oxoacetate] | > 10
C[C@H](CCC(=O)N1CCC(C)(O)CC1)[C@H]1CC[C@H]2[C@@H]3CC=C4C[C@@H](O)CC[C@]4(C)[C@H]3CC[C@]12C [Example 6, (R)-4-((3S,8S,9S,10R,13R,14S,17R)-3-hydroxy-10,13-dimethyl-2,3,4,7,8,9,10,11,12,13,14,15,16,17-tetradecahydro-1H-cyclopenta[a]phenanthren-17-yl)-1-(4-hydroxy-4-methylpiperidin-1-yl)pentan-1-one] | 0.25 to 1
C[C@@H](NC(=O)C(=O)N(C)C)[C@H]1CC[C@H]2[C@@H]3CC=C4C[C@@H](O)CC[C@]4(C)[C@H]3CC[C@]12C (single isomer, unassigned) [Example 119] | > 10
CC(NS(C)(=O)=O)C1CCN(C(=O)CC[C@@H](C)[C@H]2CC[C@H]3[C@@H]4CC=C5C[C@@H](O)CC[C@]5(C)[C@H]4CC[C@]23C)CC1 (stereo partly drawn) [Example 229, N-(1-(1-((R)-4-((3S,8S,9S,10R,13R,14S,17R)-3-hydroxy-10,13-dimethyl-2,3,4,7,8,9,10,11,12,13,14,15,16,17-tetradecahydro-1H-cyclopenta[a]phenanthren-17-yl)pentanoyl)piperidin-4-yl)ethyl)methanesulfonamide] | > 10
C[C@H](CCC(=O)N1CC(C)(C)[C@@H]2COC[C@@H]21)[C@H]1CC[C@H]2[C@@H]3CC=C4C[C@@H](O)CC[C@]4(C)[C@H]3CC[C@]12C [Example 138, (4R)-1-(3,3-dimethylhexahydro-1H-furo[3,4-b]pyrrol-1-yl)-4-((3S,8S,9S,10R,13R,14S,17R)-3-hydroxy-10,13-dimethyl-2,3,4,7,8,9,10,11,12,13,14,15,16,17-tetradecahydro-1H-cyclopenta[a]phenanthren-17-yl)pentan-1-one] | 0.25 to 1
C[C@H](CCC(=O)N1CCN(Cc2cnn(C)c2)CC1)[C@H]1CC[C@H]2[C@@H]3CC=C4C[C@@H](O)CC[C@]4(C)[C@H]3CC[C@]12C [Example 223, (R)-4-((3S,8S,9S,10R,13R,14S,17R)-3-hydroxy-10,13-dimethyl-2,3,4,7,8,9,10,11,12,13,14,15,16,17-tetradecahydro-1H-cyclopenta[a]phenanthren-17-yl)-1-(4-((1-methyl-1H-pyrazol-4-yl)methyl)piperazin-1-yl)pentan-1-one] | > 10
C[C@H](CCC(=O)N1CCN(Cc2cncnc2)CC1)[C@H]1CC[C@H]2[C@@H]3CC=C4C[C@@H](O)CC[C@]4(C)[C@H]3CC[C@]12C [Example 224, (4R)-4-[(1R,3aS,3bS,7S,9aR,9bS,11aR)-7-hydroxy-9a,11a-dimethyl-1H,2H,3H,3aH,3bH,4H,6H,7H,8H,9H,9aH,9bH,10H,11H,11aH-cyclopenta[a]phenanthren-1-yl]-1-{4-[(pyrimidin-5-yl)methyl]piperazin-1-yl}pentan-1-one] | > 10
